Measurements as given in article PMC12091851, “Replacing a Cereblon Ligand by a DDB1 and CUL4 Associated Factor 11 (DCAF11) Recruiter Converts a Selective Histone Deacetylase 6 PROTAC into a Pan‐Degrader” (Chemmedchem, 2025).

Columns and labels:
[1] = test system: MM.1S cells; test: Cell cycle analysis by PI staining and flow cytometry; format: cell-based, human; details: 10 μM, 48 h
Description: GraphPad Prism (GraphPad Software). […]
Biotech), resuspended in 1 mL EtOH/D PBS (7/3 v/v), and fixed for 30 min at 4 °C. The samples were rehydrated with DPBS and treated with 5 µg /mL RNAse ( Catalog# EN0531 , ThermoFisher Scientific Inc.) for 15 min at room temperature. The staining was performed with 3 µM propidium iodide (in DPBS) for 15 min at room temperature and analyzed by flow cytometry ( Guava easyCyteTM, Luminex, […]
Lakes, NJ, USA), using the Watson Pragmatic algorithm.[6] GraphPad Prism (GraphPad Software) was used for normalization, statistical analysis, and bar graph creation. Significance testing was performed with a one-way analysis of variance (ANOVA). Dunnett’s post-hoc test was employed to obtain […]
Final DMSO concentration was 0.1%.
Staining was performed with
Fluorescence was measured by flow cytometry (Guava® easyCyteTM, Luminex, Austin, Texas). GraphPad Prism (GraphPad Software) was used for normalization, statistical analysis, and bar graph creation. Significance testing was performed with a one-way analysis of variance (ANOVA).
Subsequently, cells were harvested and […]
After 30 minutes of incubation at […]
Dunnett’s post-hoc test was employed

[2] = target: HDAC1 (Homo sapiens, UniProt Q13547); test: Immunoblot HDAC1 degradation in MM.1S cell lysates; format: cell-based; set-up: endogenous in cells; host or cells: MM.1S; details: MM1.S, MM.1S cells, 24 h, read-out: maximal degradation (Dmax) HDAC1
Chain of HDAC1 (Q13547 whole entry, canonical isoform): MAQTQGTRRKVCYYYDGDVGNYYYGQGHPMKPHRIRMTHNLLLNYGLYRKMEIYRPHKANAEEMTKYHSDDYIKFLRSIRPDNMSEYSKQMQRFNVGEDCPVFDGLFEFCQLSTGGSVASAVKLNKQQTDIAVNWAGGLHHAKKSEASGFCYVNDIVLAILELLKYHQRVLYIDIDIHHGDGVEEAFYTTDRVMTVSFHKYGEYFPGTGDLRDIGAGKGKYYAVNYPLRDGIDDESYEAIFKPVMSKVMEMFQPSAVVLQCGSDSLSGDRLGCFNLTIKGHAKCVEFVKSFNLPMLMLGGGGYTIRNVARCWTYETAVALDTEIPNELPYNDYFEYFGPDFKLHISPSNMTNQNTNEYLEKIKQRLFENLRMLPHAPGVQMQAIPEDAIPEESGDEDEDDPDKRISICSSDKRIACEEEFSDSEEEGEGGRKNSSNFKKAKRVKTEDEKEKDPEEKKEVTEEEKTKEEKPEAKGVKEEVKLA
Description: Figure 6 Examination of HDAC isoform degradation. MM.1S cells were treated with the indicated compounds (10 μM) or vehicle (DMSO) for 24 h. HDAC1, 2, 4, and 6 levels were analyzed by immunoblotting. (A) Representative images from a total of n=3 biological replicates.
2.5. Aqueous Stability Assay
For stability testing in aqueous solution, a 10-fold concentrated DMSO solution of the respective compounds was diluted in DPBS to generate a 10 µM concentration (final DMSO content of 10%).
Samples of the aqueous solutions were taken after 0, 24, 48, and 72 h at room temperature and the amounts of the parental compound and potential fragments were monitored by HPLC gradient A (see 3.1 General Information). […]
Afterwards, proteins were transferred with the Trans -Blot Turbo Transfer System (Catalog# 1704150, Bio-Rad) to Immobilon-FL PVDF membranes (Catalog# IPFL00005, Mill ipore Merck, Burlington, MA, USA) at 1.0 A for 30 min and treated with 5% milk-powder solution for 1 h at room temperature under slight agitation. […] The ChemiDoc XRS+ System (Catalog# 1708265 , Bio-Rad) was used for detection and Image Lab Software 6.1 (Bio-Rad) for quantification. […]
In vitro inhibitory activities against HDAC1, 2 , and 6 were measured using a previously published protocol.[3] In vitro inhibitory activities against HDAC4 were measured using a previously published protocol with slight modifications. […]

| Dmax at 10 µM [2] [%] | SMILES | effect on cell cycle phases [1] |
| --- | --- | --- |
| 90 | O=C(CCCCCCNC(=O)c1ccc(NC(=O)CCCCCCCCCCCN(C(=O)CCl)C(C(=O)NCc2ccccc2)c2ccc(Cl)c(Cl)c2)cc1)NO (stereo not shown) [Compound 1j] | increase of the sub G1 phase, while the S phase was decreased |
| 74 | O=C(CCCCCCNC(=O)c1ccc(N(C(=O)CCl)C(C(=O)NCc2ccccc2)c2ccc(Cl)c(Cl)c2)cc1)NO (stereo not shown) [Compound 2] | increase of the sub G1 phase, while the S phase was decreased |
